{"source": "patent US8916526B2", "about": "“Flavanone derivative” (National University Corporation Okayama University, priority 2009, dated 2014)", "key": {"MRSA N315": {"system": "MRSA N315", "assay": "In vitro infectivity assay (MIC), broth dilution, Exp. Ex. 1-1", "type": "cell-based, Staphylococcus aureus", "conditions": "Staphylococcus aureus; MRSA N315; Mueller-Hinton broth, 35° C., 24 hours; read-out: MIC MRSA N315", "method_in_brief": "(§1)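 Antibacterial activity was determined by the CLSI broth dilution technique. Bacteria at about 10^5 CUF/[…] grew in Mueller-Hinton broth containing 0.85% NaCl for 24 hours at 35° C., and minimum inhibitory concentrations were recorded from three measurements.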"}, "MRSA OM481": {"system": "MRSA OM481", "assay": "In vitro infectivity assay (MIC), broth dilution, Exp. Ex. 1-1", "type": "cell-based, Staphylococcus aureus", "conditions": "Staphylococcus aureus; MRSA OM481; Mueller-Hinton broth, 35° C., 24 hours; read-out: MIC MRSA OM481", "method_in_brief": "as §1"}, "MRSA OM58": {"system": "MRSA OM58", "assay": "In vitro infectivity assay (MIC), broth dilution, Exp. Ex. 1-1", "type": "cell-based, Staphylococcus aureus", "conditions": "Staphylococcus aureus; MRSA OM58; Mueller-Hinton broth, 35° C., 24 hours; read-out: MIC MRSA OM58", "method_in_brief": "as §1"}, "MSSA FDA 209P": {"system": "MSSA FDA 209P", "assay": "In vitro infectivity assay (MIC), broth dilution, Exp. Ex. 1-1", "type": "cell-based, Staphylococcus aureus", "conditions": "Staphylococcus aureus; MSSA FDA 209P; Mueller-Hinton broth, 35° C., 24 hours; read-out: MIC MSS 209P", "method_in_brief": "as §1"}, "VISA Mu50": {"system": "VISA Mu50", "assay": "In vitro infectivity assay (MIC), broth dilution, Exp. Ex. 1-1", "type": "cell-based, Staphylococcus aureus", "conditions": "Staphylococcus aureus; VISA Mu50; Mueller-Hinton broth, 35° C., 24 hours; read-out: MIC VISA Mu50", "method_in_brief": "as §1"}, "VRE FN-1": {"system": "VRE FN-1", "assay": "In vitro infectivity assay (MIC), broth dilution, Exp. Ex. 1-1", "type": "cell-based, enterococci", "conditions": "Enterococcus; VRE FN-1; Mueller-Hinton broth, 35° C., 24 hours; read-out: MIC VRE FN-1", "method_in_brief": "as §1"}, "VRE NCTC12201": {"system": "VRE NCTC12201", "assay": "In vitro infectivity assay (MIC), broth dilution, Exp. Ex. 1-1", "type": "cell-based, enterococci", "conditions": "Enterococcus; VRE NCTC12201; Mueller-Hinton broth, 35° C., 24 hours; read-out: MIC VRE NCTC12201", "method_in_brief": "as §1"}, "[1]": {"target": "T1, DNA gyrase of Escherichia coli (Escherichia coli, UniProt P0AES4+P0AES6)", "T1 construct": "purchased John Innes Enterprises #K0001", "T1 sequence (P0AES4 whole entry, one chain of several)": "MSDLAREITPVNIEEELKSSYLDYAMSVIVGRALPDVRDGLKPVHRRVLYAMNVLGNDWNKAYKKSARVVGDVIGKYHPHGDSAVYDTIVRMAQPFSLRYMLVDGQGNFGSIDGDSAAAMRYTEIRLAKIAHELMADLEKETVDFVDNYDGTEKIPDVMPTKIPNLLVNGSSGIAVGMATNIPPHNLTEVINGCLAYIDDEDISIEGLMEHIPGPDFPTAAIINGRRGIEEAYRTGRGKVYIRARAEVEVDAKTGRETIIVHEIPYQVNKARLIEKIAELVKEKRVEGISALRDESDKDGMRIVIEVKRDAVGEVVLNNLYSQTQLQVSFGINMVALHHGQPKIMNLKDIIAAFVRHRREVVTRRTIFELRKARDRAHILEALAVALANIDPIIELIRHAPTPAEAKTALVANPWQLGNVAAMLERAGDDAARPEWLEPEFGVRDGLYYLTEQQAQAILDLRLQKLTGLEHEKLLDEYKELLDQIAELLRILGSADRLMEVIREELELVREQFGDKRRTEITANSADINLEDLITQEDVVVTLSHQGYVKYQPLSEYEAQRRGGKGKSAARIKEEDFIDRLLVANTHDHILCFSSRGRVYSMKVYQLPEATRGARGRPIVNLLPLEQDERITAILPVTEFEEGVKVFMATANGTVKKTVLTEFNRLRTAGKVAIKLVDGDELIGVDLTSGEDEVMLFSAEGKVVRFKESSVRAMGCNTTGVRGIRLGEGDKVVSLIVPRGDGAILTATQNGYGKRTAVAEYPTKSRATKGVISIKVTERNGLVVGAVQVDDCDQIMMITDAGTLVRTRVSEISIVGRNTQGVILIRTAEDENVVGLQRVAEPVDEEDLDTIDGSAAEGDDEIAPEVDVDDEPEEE", "assay": "DNA gyrase inhibition (supercoiling assay kit), Exp. Ex. 1-2", "type": "biochemical", "conditions": "E. coli DNA gyrase supercoiling, relaxed pBR322, 37° C., 30 minutes; read-out: Gyrase inhibitory activity IC50 (converted)", "method_in_brief": "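Relaxed pBR322 DNA […] supercoiled by 1 U E. coli gyrase for 30 min at 37 °C in 35 mM Tris-HCl pH 7.5, 24 mM KCl, 4 mM MgCl2, 2 mM DTT, 1.8 mM spermidine, 1 mM ATP, 6.5% glycerol, 0.1 mg/ml BSA. Products resolved by gel electrophoresis; IC50 determined.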"}, "[2]": {"system": "Methicillin sensitive S. aureus 209P", "assay": "In vitro infectivity assay (MIC), Exp. Ex. 2-1", "type": "cell-based, Staphylococcus aureus", "conditions": "Staphylococcus aureus, 209P / MSSA; Gram-positive; microdilution, MIC after 24 h; read-out: MIC MSSA 209P", "method_in_brief": "(§2)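 Activity is expressed as MIC under CLSI broth dilution, using a starting inoculum near 10^5 CUF/[…] in Mueller-Hinton medium plus 0.85% NaCl; plates sit at 35° C for 24 hours, three measurements.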"}, "[3]": {"system": "Methicillin-resistant S. aureus COL", "assay": "In vitro infectivity assay (MIC), Exp. Ex. 2-1", "type": "cell-based, Staphylococcus aureus", "conditions": "Staphylococcus aureus, MRSA; Gram-positive; microdilution, MIC after 24 h"}, "[4]": {"system": "Methicillin-resistant S. aureus N315", "assay": "In vitro infectivity assay (MIC), Exp. Ex. 2-1", "type": "cell-based, Staphylococcus aureus", "conditions": "Staphylococcus aureus, MRSA; Gram-positive; microdilution, MIC after 24 h; read-out: MIC MRSA N315", "method_in_brief": "as §2"}, "[5]": {"system": "Methicillin-resistant S. aureus OM481", "assay": "In vitro infectivity assay (MIC), Exp. Ex. 2-1", "type": "cell-based, Staphylococcus aureus", "conditions": "Staphylococcus aureus, MRSA; Gram-positive; microdilution, MIC after 24 h; read-out: MIC MRSA OM481", "method_in_brief": "as §2"}, "[6]": {"system": "Methicillin-resistant S. aureus OM584", "assay": "In vitro infectivity assay (MIC), Exp. Ex. 2-1", "type": "cell-based, Staphylococcus aureus", "conditions": "Staphylococcus aureus, MRSA; Gram-positive; microdilution, MIC after 24 h; read-out: MIC MRSA OM584", "method_in_brief": "as §2"}, "[7]": {"system": "Streptococcus pneumoniae R6", "assay": "In vitro infectivity assay (MIC), Exp. Ex. 2-1", "type": "cell-based", "conditions": "Streptococcus pneumoniae, R6; Gram-positive; microdilution, MIC after 24 h; read-out: MIC S. Pneumoniae R6"}, "Escherichia coli K-12": {"system": "Escherichia coli K-12", "assay": "Antibacterial activity (MIC) against Gram-negative strains, microdilution", "type": "cell-based", "conditions": "K12, MIC after 24 h, read-out: MIC (Gram-nagative) K-12", "method_in_brief": "(§3)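 CLSI broth microdilution in Mueller-Hinton broth with 0.85% NaCl, inoculum about 10^5 […]. Incubated 35° C for 24 hours; MIC taken as the minimum inhibitory concentration, measured three times.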"}, "[8]": {"system": "Pseodomonas aeruginosa PAOI", "assay": "Antibacterial activity (MIC) against Gram-negative strains, microdilution", "type": "cell-based", "conditions": "MIC after 24 h, read-out: MIC (Gram-nagative) PAO1", "method_in_brief": "as §3"}}}
{"smiles": "O=c1c(O)c(-c2ccc(O)c(O)c2)oc2cc(O)cc(O)c12", "note": "[Quercetin, quercetin, reference compound]", "values": [{"measurement": "MIC", "setting": "MRSA N315", "result": "> 128", "unit": "µg/mL"}, {"measurement": "MIC", "setting": "MRSA OM481", "result": "> 128", "unit": "µg/mL"}, {"measurement": "MIC", "setting": "MRSA OM58", "result": "> 128", "unit": "µg/mL"}, {"measurement": "MIC", "setting": "MSSA FDA 209P", "result": "> 128", "unit": "µg/mL"}, {"measurement": "MIC", "setting": "VISA Mu50", "result": "> 128", "unit": "µg/mL"}, {"measurement": "MIC", "setting": "VRE FN-1", "result": "> 128", "unit": "µg/mL"}, {"measurement": "MIC", "setting": "VRE NCTC12201", "result": "> 128", "unit": "µg/mL"}, {"measurement": "IC50", "setting": "[1]", "result": 2.61, "unit": "µM"}, {"measurement": "MIC", "setting": "[2]", "result": "> 128", "unit": "µg/mL"}, {"measurement": "MIC", "setting": "[3]", "result": "> 128", "unit": "µg/mL"}, {"measurement": "MIC", "setting": "[4]", "result": "> 128", "unit": "µg/mL"}, {"measurement": "MIC", "setting": "[5]", "result": "> 128", "unit": "µg/mL"}, {"measurement": "MIC", "setting": "[6]", "result": "> 128", "unit": "µg/mL"}, {"measurement": "MIC", "setting": "[7]", "result": "> 128", "unit": "µg/mL"}, {"measurement": "MIC", "setting": "Escherichia coli K-12", "result": 64, "unit": "µg/mL"}, {"measurement": "MIC", "setting": "[8]", "result": "> 128", "unit": "µg/mL"}]}
